We go through 20 compounds from patent US20190192510A1, “GPR119 AGONIST” (NIPPON CHEMIPHAR CO., LTD., priority 2010, published 2019).

The test concerns the target T1, human GPR119 (Homo sapiens, UniProt Q8TDV5).
T1 sequence (Q8TDV5 1-335): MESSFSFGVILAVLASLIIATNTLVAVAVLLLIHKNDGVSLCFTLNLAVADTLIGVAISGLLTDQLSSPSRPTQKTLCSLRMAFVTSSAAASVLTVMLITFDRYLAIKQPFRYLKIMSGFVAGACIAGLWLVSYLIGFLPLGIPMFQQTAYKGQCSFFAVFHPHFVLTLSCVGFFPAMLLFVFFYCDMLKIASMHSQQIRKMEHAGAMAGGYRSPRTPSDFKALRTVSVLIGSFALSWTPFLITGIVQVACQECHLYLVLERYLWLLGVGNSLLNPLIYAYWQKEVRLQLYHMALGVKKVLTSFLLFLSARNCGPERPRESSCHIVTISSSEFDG
Briefly: Intracellular cAMP increase in human GPR119 introduced cells (Pharmacological Experiments 1 and 2). Format: cell-based. Conditions: for GPR119 agonist effect: result in words, refers to Tables 12 and 13.
Description: The GPR119 agonist effect is studied by measuring the effect of an analyte on increase of intracellular amount of cAMP in human GPR119 introduced cells. The testing method is described below.
Human GPR119 gene (NM 178471) is purchased from ATCC (ATCC No. 10807349), and is amplyfied according to PCR to form BamHI site at 5′ side and Apa I site at 3′ side. The forward side primer is […] (sequence No. 1), and the reverse side primer is […] (sequence No. 2). The PCR conditions are described below.
(§1) The double-stranded DNA is thermally denatured using a DNA polymerase (KOD-Plus-Ver. 2; TOYOBO #KOD-211) at 98° C. for 10 seconds in one cycle. The denatured single-stranded DNA is annealed with the primers at 55° C. for 30 seconds. The DNA is subjected to an extension reaction at 68° C. for 1 minute and 15 seconds. The above-mentioned steps are repeated in 35 cycles. The PCR product is inserted into pcDNA5/FRT/TO (Invitrogen #V6520-20) plasmid. Flp-in T-Rex-293 cells (Invitorogen #R78007) are transfected with the obtained plasmid. The method of transfection is conducted in accordance with the protocol of the product.
The stable cell line expressing human GPR119 prepared in the above-mentioned method is plated on a 96-well plate at the concentration of 2,500 cells/well using Dulbecco's Modified Eagle Medium (DMEM) containing 10% fetal bovine serum (FBS). Twenty-four hours after plating, tetracyclin (Invitrogen #Q10019) is added at the final concentration of 20 ng/mL to induce hGPR119 gene expression. Twenty-four hours after, the medium is removed, and the cells are stimulated with an assay buffer (0.5 mM IBMX PBS(−)) containing the test compound at 37° C. for 30 minutes. The amount of the intracellular cAMP is measured using a commercially available kit (HitHunter™ cAMP XS+ Assay: GE Healthcare #90007503) and a reader (FLUOstar Optima: BMG LABTECH). The test compound is dissolved in 100% DMSO, and added at the final concentration of 1%.
Human GPR119 gene (NM 178471) was purchased from ATCC (ATCC No. 10807349), and is amplyfied according to PCR to form BamHI site at 5′ side and Apa I site at 3′ side. The primers were […] (sequence No. 1) and […] (sequence No. 2). The PCR conditions are described below.
as §1, with “was” for “is”, “were” for “are”
The stable cell line expressing human GPR119 prepared in the above-mentioned method was plated on a 96-well plate at the concentration of 2,500 cells/well using Dulbecco's Modified Eagle Medium (DMEM) containing 10% fetal bovine serum (FBS). Twenty-four hours after plating, tetracyclin (Invitrogen #Q10019) was added at the final concentration of 20 ng/mL to induce hGPR119 gene expression. Twenty-four hours after, the medium was removed, and the cells were stimulated with an assay buffer (0.5 mM IBMX PBS (−)) containing the test compound at 37° C. for 30 minutes. The amount of the intracellular cAMP was measured using a commercially available kit (HitHunter™ cAMP XS+ Assay: GE Healthcare #90007503) and a reader (FLUOstar Optima: BMG LABTECH). The test compound was dissolved in 100% DMSO, and added at the final concentration of 1%.
The examination was performed by the method similar to Example 61 Pharmacological experiment 1-(1), 1-(2).

Setting [1] is: Table 13, Pharmacological experiment 2, method similar to Example 61, read-out: EC50.
[2] abbreviates: Table 12, Flp-in T-Rex-293 cells stably expressing hGPR119, intracellular cAMP, 37° C. for 30 minutes, read-out: EC50.

As a reminder, the EC50 is the concentration giving half of the maximal effect.

Like-named read-outs stand apart in the source and are kept apart here.

Turning to `CC(C)(C)OC(=O)N1CCC(c2cnc(COc3ccc(S(C)(=O)=O)cc3)cn2)CC1` [Example 3, tert-Butyl 4-[5-(4-methanesulfonylphenoxymethyl)pyrazin-2-yl]piperidine-1-carboxylate], a half-maximal response (EC50) required 0.0746 µM.

Turning to `CCc1cnc(N2CCC(c3cnc(Cn4ccc5cc(-n6cnnn6)cc(F)c54)cn3)CC2)nc1` [Example 42, 5-Ethyl-2-[4-[5-[7-fluoro-5-(tetrazol-1-yl)indol-1-ylmethyl]pyrazin-2-yl]piperidin-1-yl]pyrimidine], the GPR119 agonist effect entry was “excellent GPR119 agonist effect”. Under setting [1], the concentration for a half-maximal effect (EC50) is 0.0031 µM. For the compound `CC(C)(C)OC(=O)N1CCC(c2cnc(Cn3ccc4cc(S(C)(=O)=O)cc(F)c43)cn2)CC1` [Example 28, tert-Butyl 4-[5-(7-fluoro-5-methanesulfonylindol-1-ylmethyl)pyrazin-2-yl]piperidine-1-carboxylate], the EC50 amounted to 0.0076 µM and the GPR119 agonist effect result is recorded as “excellent GPR119 agonist effect”. With `CC(C)(C)OC(=O)N1C2CCC1CC(c1cnc(COc3ccc(S(C)(=O)=O)cc3)cn1)C2` (stereo not shown) [Example 11, tert-Butyl 3-[5-(4-methanesulfonylphenoxymethyl)pyrazin-2-yl]-8-azabicyclo[3.2.1]octane-8-carboxylate], the EC50 came out at 0.0673 µM. Compound `CC(C)OC(=O)N1CCC(c2cnc(Cn3ccc4cc(-n5cnnn5)cc(F)c43)cn2)CC1` [Example 38, Isopropyl 4-[5-[7-fluoro-5-(tetrazol-1-yl)indol-1-ylmethyl]pyrazin-2-yl]piperidine-1-carboxylate] registered an EC50 of 0.0165 µM. On to `CC1CN(C(=O)OC(C)(C)C)CC=C1c1cnc(COc2ccc(S(C)(=O)=O)c(F)c2F)nc1` (stereo not shown) [Example 24, tert-Butyl 4-[2-(2,3-difluoro-4-methanesulfonylphenoxymethyl)pyrimidin-5-yl]-3-methyl-3,6-dihydro-2H-pyridine-1-carboxylate], for which the EC50 under setting [2] was found to be 0.111 µM. On to `CC(C)(C)OC(=O)N1C2C=C(c3cnc(COc4ccc(S(C)(=O)=O)cc4)cn3)CC1CC2` (stereo not shown) [Example 10, tert-Butyl 3-[5-(4-methanesulfonylphenoxymethyl)pyrazin-2-yl]-8-azabicyclo[3.2.1]oct-2-ene-8-carboxylate], for which the EC50 was 0.0998 µM. As to `Fc1cc(-n2cnnn2)cc2ccn(Cc3cnc(C4CCN(c5ncc(Br)cn5)CC4)cn3)c12` [Example 54, 5-Bromo-2-[4-[5-[7-fluoro-5-(tetrazol-1-yl)indol-1-ylmethyl]pyrazin-2-yl]piperidin-1-yl]pyrimidine], the concentration giving a half-maximal response (EC50) under setting [1] was 0.0142 µM.

In the case of `CC(C)OC(=O)N1CC=C(c2cnc(Cn3ccc4cc(S(C)(=O)=O)c(F)c(F)c43)cn2)C(C)C1` (stereo not shown) [Example 29, Isopropyl 4-[5-(6,7-difluoro-5-methanesulfonylindol-1-ylmethyl)pyrazin-2-yl]-3-methyl-3,6-dihydro-2H-pyridine-1-carboxylate], the EC50 was found to be 0.0357 µM. Still for that read-out and setting: the figure for `CC(C)(C)OC(=O)N1CCC(c2cnc(Cn3ccc4cc(S(C)(=O)=O)ccc43)nc2)CC1` [Example 4, tert-Butyl 4-[2-(5-methanesulfonylindol-1-ylmethyl)pyrimidin-5-yl]piperidine-1-carboxylate] is 0.0624 µM; for `CC(C)OC(=O)N1CCC(c2cnc(Cn3ccc4cc(-n5cnnn5)cc(F)c43)nc2)CC1` [Example 50, Isopropyl 4-[2-[7-fluoro-5-(tetrazol-1-yl)indol-1-ylmethyl]pyrimidin-5-yl]piperidine-1-carboxylate] it is 0.0174 µM. `CC1CN(C(=O)OC(C)(C)C)CC=C1c1cnc(Cn2ccc3cc(S(C)(=O)=O)c(F)c(F)c32)cn1` (stereo not shown) [Example 21, tert-Butyl 4-[5-(6,7-difluoro-5-methanesulfonylindol-1-ylmethyl)pyrazin-2-yl]-3-methyl-3,6-dihydro-2H-pyridine-1-carboxylate]: the EC50 turned out to be 0.0214 µM and the GPR119 agonist effect result is listed as “excellent GPR119 agonist effect”. `CC1CN(C(=O)OC(C)(C)C)CC=C1c1cnc(Cn2ccc3c(F)c(S(C)(=O)=O)c(F)cc32)cn1` (stereo not shown) [Example 19, tert-Butyl 4-[5-(4,6-difluoro-5-methanesulfonylindol-1-ylmethyl)pyrazin-2-yl]-3-methyl-3,6-dihydro-2H-pyridine-1-carboxylate] had a half-maximal effective concentration (EC50) of 0.0828 µM. Consider `CC(C)(C)OC(=O)N1CCC(c2cnc(Cn3ccc4cc(-n5cnnn5)cc(F)c43)cn2)CC1` [Example 34, tert-Butyl 4-[5-[7-fluoro-5-(tetrazol-1-yl)indol-1-ylmethyl]pyrazin-2-yl]piperidine-1-carboxylate], for which the EC50 came to 0.0029 µM and the GPR119 agonist effect result is given as “excellent GPR119 agonist effect”. In turn, `CC(C)(C)OC(=O)N1CC=C(c2cnc(COc3ccc(-n4cnnn4)cc3F)cn2)CC1` [Example 12, tert-Butyl 4-[5-[2-fluoro-4-(tetrazol-1-yl)phenoxymethyl]pyrazin-2-yl]-3,6-dihydro-2H-pyridine-1-carboxylate] returned a concentration giving a half-maximal response (EC50) of 0.0564 µM.

For the compound `CC(C)(C)OC(=O)N1CCC(c2cnc(Cn3ccc4cc(S(C)(=O)=O)cnc43)nc2)CC1` [Example 46, tert-Butyl 4-[2-(5-methanesulfonyl-1H-pyrrolo[2,3-b]pyridin-1-ylmethyl)pyrimidin-5-yl]piperidine-1-carboxylate], the response was half-maximal at 0.095 µM (EC50). In turn, `CC(C)(C)OC(=O)N1CC=C(c2cnc(COc3ccc(S(C)(=O)=O)cc3)cn2)CC1` [Example 2, tert-Butyl 4-[5-(4-methanesulfonylphenoxymethyl)pyrazin-2-yl]-3,6-dihydro-2H-pyridine-1-carboxylate] came in with a half-maximal effective concentration (EC50) of 0.0765 µM. Consider `CC(C)(C)OC(=O)N1CC=C(c2cnc(Cn3ccc4cc(S(C)(=O)=O)c(F)c(F)c43)cn2)CC1` [Example 20, tert-Butyl 4-[5-(6,7-difluoro-5-methanesulfonylindol-1-ylmethyl)pyrazin-2-yl]-3,6-dihydro-2H-pyridine-1-carboxylate], for which the midpoint of the response, the EC50, lay at 0.0219 µM and the GPR119 agonist effect entry is “excellent GPR119 agonist effect”. Take `CC(C)OC(=O)N1CC=C(c2cnc(Cn3ccc4c(F)c(S(C)(=O)=O)c(F)cc43)cn2)C(C)C1` (stereo not shown) [Example 30, Isopropyl 4-[5-(4,6-difluoro-5-methanesulfonylindol-1-ylmethyl)pyrazin-2-yl]-3-methyl-3,6-dihydro-2H-pyridine-1-carboxylate]: the 50% effective concentration (EC50) under setting [1] was 0.137 µM.

Consider `CC1CN(C(=O)OC(C)(C)C)CC=C1c1cnc(COc2ccc(-n3cncn3)cc2)cn1` (stereo not shown) [Example 17, tert-Butyl 3-methyl-4-[5-[4-(1,2,4-triazol-1-yl)phenoxymethyl]pyrazin-2-yl]-3,6-dihydro-2H-pyridine-1-carboxylate], for which, under setting [2], the concentration giving a half-maximal response (EC50) turned out to be 0.124 µM.
